Measured values from article PMC12463534, “Exploring the Anticancer Properties of 4-Phenylthiazole-Based Ru(II) and Os(II) Metallacycles Featuring 1-Methylimidazole as N-Donor Functionality” (Bioinorganic Chemistry and Applications, 2025).

Legend:
[1] = Conditional stability constant of Ru-MeIm bond and speciation modelling (pH-dependent UV-vis, HypSpec); assay type: physicochemical
Protocol: Calculation was done with HypSpec software based on the pH-dependent UV–vis spectra recorded after 3 days (Figures S27, S28). With the help of the computed constant, it was possible to model the speciation at various concentrations. […] At pH 6.0, a condition more characteristic of solid tumor tissues, the MeIm ligand tends to dissociate to a greater extent and only 44% and 76% of the original complex is found in solution at 0.1 and 1 μM concentrations, respectively.
The average water ionization constant, pKw, was determined as 13.76 ± 0.01, which is in good agreement with literature data. The initial volume of the samples was 15.0 mL. The complex concentration was 100 or 157 μM at an ionic strength of I = 0.1 M (KCl). Samples were degassed by bubbling purified argon through them for about 10 min prior to the measurements, and the inert gas was also passed over the solutions during the titrations. 0.70-mL batch samples were collected between pH 1 and 11; these samples were kept in dark, and after 2 and 3 days, their pH was remeasured, and the UV–vis spectra were recorded as well. Only small differences were observed between the 2- and 3-day spectra, and always, the 3-day samples were used for further evaluation. The conditional stability constant for 3c was calculated based on the following equilibrium: [RuCym(N,C)(Z)]^(1+n) + MeIm ⇌ [RuCym(N,C) (MeIm)]^+ + Z^n; (Z = Cl^– or H2O; n = −1 or 0). The calculation was done with the HypSpec software. […] The calculated stability constant is a conditional value and applies for I = 0.1 M KCl ionic strength.

[2] = Ruthenium levels in tissues by ICP-MS; assay type: in vivo; conditions: CT26-bearing mice, 2 h after last injection
Protocol: Tumor-specific organs and blood serum, harvested from the other animals 2 h after the last injection (Figure 5(c)), were measured for the average ruthenium content by inductively coupled plasma mass spectrometry (ICP-MS) of tissue homogenates.
CT26 cells (5 × 10^5 cells in 50-μL serum-free medium) were injected subcutaneously (s.c.) into the right flank of 8–16-week-old BALB/c mice (Envigo Laboratories, San Pietro Al Natisone, Italy). After 3 days, therapy treatment started on five consecutive days for 2 weeks. Animals were treated i.p. with 50 mg/kg 1c and 3c (all dissolved in 10% DMSO in 0.9% NaCl, 12 mice per group). The solvent control animals received 10% DMSO in 0.9% NaCl. Every day, the animals were monitored for the overall health conditions and tumor size was measured regularly by caliper measurement. Tumor volumes (mm^3) were calculated using following formula: length × width^2/2. […] Tumor growth and possible side effects of the treatment were evaluated by daily recording the tumor size by caliper measurement and parameters of the animal's overall health conditions. In the tissue sampling arm at the experiment, the mice were sacrificed by cervical dislocation 2 h after the last treatment. Tumors as well as organs were collected. Additionally, blood was drawn and incubated for 25 min to allow blood clotting. To isolate serum and blood pellets, the blood was centrifuged for 10 min at 17,900 g at room temperature. The supernatant characterized as serum was transferred to a new tube and centrifuged again to remove residual red blood cells. All collected samples were stored at −20°C and further processed for platinum measurements via ICP-MS.
The ruthenium concentration was determined by ICP-MS analysis. Ruthenium and rhenium standards were derived from LabKings (LabKings B.V., The Netherlands). The total ruthenium content was determined with a quadrupole-based ICP-MS instrument Agilent 7800 (Agilent Technologies, Tokyo, Japan) equipped with the Agilent SPS 4 autosampler (Agilent Technologies, Tokyo, Japan) and a MicroMist nebulizer at a sample uptake rate of approximately 0.2 mL·min^−1. […] Argon was used as plasma gas (15 L·min^−1) and as carrier gas (∼1.08 L·min^−1). The integration time was set to 0.1 s, and measurements were performed in 6 replicates with 100 sweeps. Rhenium served as internal standard for ruthenium.

[3] = test system: HCT116 colorectal cancer cell line (2D); test: Resazurin assay, HCT116 2D (monolayer) culture; conditions: read-out: IC50 2D, resazurin assay, 96 h exposure
[4] = test system: Balb/c mice; test: Toxicity experiments in Balb/c mice (MTD); conditions: mice, i.p.
Protocol: Finally, we were interested in the anticancer activity of selected complexes of our panel in an in vivo mouse setting. Before injecting the compounds in tumor-bearing mice, toxicity experiments were performed. […] On the last day of therapy, most animals were sacrificed and tissues as well as tumors collected. Only four mice (per group) were kept to get information on the impact of the drugs on the overall survival.

[5] = test system: SW480 cells; test: DCFH-DA assay, cellular ROS levels; assay type: cell-based, human; conditions: 2 h, concentration dependent
[6] = test system: SW480 colon adenocarcinoma cells; test: MTT assay, inhibition of cancer cell growth, SW480; conditions: read-out: 50% inhibitory concentration SW480, exposure time 96 h
Protocol: (§1) CH1/PA-1 ovarian teratocarcinoma cells (CH1, RRID: CVCL_4992, provided by L. R. Kelland, CRC Center for Cancer Therapeutics, Institute of Cancer Research, Sutton, UK; confirmed by STR profiling as PA-1 ovarian teratocarcinoma cells at Multiplexion, Heidelberg, Germany), SW480 colon adenocarcinoma (RRID: CVCL_0546), and A549 lung adenocarcinoma cells (NCI-H2618, RRID: CVCL_A549; both cell lines were obtained from the American Type Culture Collection (ATCC), Manassas, VA, USA) were grown as adherent cultures in 75-cm^2 culture flasks (Starlab, Hamburg, Germany) by using minimal essential medium (MEM) supplemented with 1 mM sodium pyruvate, 4 mM L-glutamine, 1% (v/v) nonessential amino acids from 100-fold stock (all purchased from Sigma-Aldrich), and 10% heat-inactivated fetal bovine serum (Serana, Pessin, Germany).
(§2) The 3-(4,5-dimethylthiazol-2-yl)-2,5-diphenyl-2H tetrazolium bromide (MTT, Acros Organics, Geel, Belgium) assay was used to detect the cytotoxicity of the compounds after 96-h incubation. For this purpose, cells were harvested from culture flasks by trypsinization, seeded in 100-μL aliquots into 96-well microculture plates (Starlab, UK) in densities of 1 × 10^3 (CH1/PA-1), 2 × 10^3 (SW480), and 3 × 10^3 (A549) cells per well and incubated for 24 h prior to exposure to the test compounds. Stock solutions of test compounds were prepared in DMF, which were then diluted in MEM (not to exceed a final content of 0.5% v/v of organic solvent in the test plates), and serial dilutions were added in aliquots of 100 μL per well. […] After incubation for 4 h, the medium/MTT mixtures were removed, and the produced formazan crystals were dissolved in 150 μL DMSO per well. Optical densities at 550 nm were measured spectrophotometrically with a ELx808 Absorbance Microplate Reader (Bio-Tek, Winooski, VT, USA) by using a reference wavelength of 690 nm to correct for unspecific absorption.

[7] = Solubility in 1% DMF/PBS
Excerpt: Solubility is an important factor for the application of metallodrugs. DMF was used as solubilizer to allow comparison to the respective chlorido complexes where the usage of DMSO would lead to stable DMSO adducts.
As the coordinated p-cym and leaving groups are present in all synthesized complexes, we focused on the differently substituted 4-phenylthiazoles for estimated changes in lipophilicity.

[8] = test system: CH1/PA-1 ovarian teratocarcinoma cells; test: MTT assay, inhibition of cancer cell growth, CH1/PA-1; conditions: read-out: 50% inhibitory concentration CH1, exposure time 96 h
Protocol: as §1, §2

[9] = Stability and reactivity in aqueous solution (1H-NMR, UV-vis)
Protocol: The exact concentration of the metal complex stock solutions was calculated on weight-in-volume basis. Complexes were dissolved in water in 1–5 mM concentration.
The path length was 1 cm.
^1H-NMR spectroscopic studies were carried out on a Bruker FT-NMR spectrometer AV NEO 500.10 MHz and a Bruker Avance III HD Ascend 500 Plus instrument. All ^1H-NMR spectra were recorded using a standard Bruker noesygppr1d pulse sequence to suppress water resonance. […] Samples contained 10% (v/v) D2O with a complex concentration of ca. 1 mM. Samples were prepared in pH 1.3 aqueous HCl solution or in pH 7.4 PBS.

Cc1ccc(C(C)C)cc1.Cn1cc[n+]([Ru-]2[c]3cc(S(C)(=O)=O)ccc3-c3csc[n+]32)c1.O=[N+]([O-])[O-] [Compound 3c, [((3-κN)-1-Methylimidazole)(4-(4-(methylsulfonyl)phenyl)thiazolato-κN,κC2′)(η^6-p-cymene)ruthenium(II)] Nitrate]
Conditional stability constant logK′ of Ru(p-cym)-MeIm bond ([1]; I = 0.1 M KCl, 25°C, UV-vis spectra after 3 days, HypSpec): 8.31 ± 0.03
Original complex found in solution ([1]; pH 6.0, 0.1 μM complex, modelled from logK′): 44%
Original complex found in solution ([1]; pH 6.0, 1 μM complex, modelled from logK′): 76%
Intact (nondissociated) complex fraction ([1]; pH 7.4, 0.1 μM complex, modelled from logK′): 78%
Stability of complex by modelled speciation ([1]; pH 7.4, 1 μM and 10 μM complex concentrations): stable
Ruthenium level in liver [2]: ~20 mg/kg
Ruthenium level in tumor [2]: ~1 mg/kg
IC50 [3]: > 200 µM
Tolerated dose [4]: at least 50 mg/kg
Effect on intracellular ROS levels [5]: constantly decrease ROS levels with increasing concentrations
IC50 [6]: > 200 µM
Solubility [7]: 24.6 mM
IC50 [8]: 102 ± 11 µM
Sensitivity to chloride: replacement of coordinated MeIm ([9]; 3 M KCl, pH 7.4, UV-vis): could not replace coordinated MeIm
Decomposition at pH 7.4 ([9]; PBS pH 7.4, 1 mM complex, 25°C, within 6 days, 1H-NMR): no decomposition
Behaviour in acidic solution ([9]; pH = 1.0 or 1.3 (HCl), followed in time up to 6 days, 1H-NMR/UV-vis): decomposition
Spectral change at pH 10.0 ([9]; pH = 10.0 (NaOH), within 2 days, UV-vis): no spectral change
